According to publication PMC6988263 (Parasites & Vectors, 2020):

Target: T1, rHc-HRG-2 (recombinant Hc-HRG-2) (Haemonchus contortus, UniProt A0A7I5E8W1)
T1 construct: vector His tag), expressed in E. coli, Ni-NTA purified
Assay: GSH-CDNB conjugation, absorbance at […] nm
Assay type: biochemical
Conditions: 1 mM GSH, 0.1 M potassium phosphate pH 6.5, 10 μM protein

T1 sequence (A0A7I5E8W1 entry or part of it): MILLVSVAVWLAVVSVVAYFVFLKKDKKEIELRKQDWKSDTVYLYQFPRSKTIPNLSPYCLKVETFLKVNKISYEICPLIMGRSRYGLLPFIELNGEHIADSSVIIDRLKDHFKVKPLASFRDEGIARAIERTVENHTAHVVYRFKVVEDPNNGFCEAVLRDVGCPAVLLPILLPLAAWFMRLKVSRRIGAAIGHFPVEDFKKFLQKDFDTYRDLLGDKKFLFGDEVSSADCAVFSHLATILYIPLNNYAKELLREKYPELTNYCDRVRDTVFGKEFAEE

O=[N+]([O-])c1ccc(Cl)c([N+](=O)[O-])c1 [CDNB, 1-chloro-2,4-dinitrobenzene]
Km: 508 ± 34.1 µM
